Tests used:
Assay type in all cases: biochemical
UvrA [1] = biological target: T1, UvrA (Escherichia coli, UniProt P0A698); experiment: NADH-coupled ATPase assay (pyruvate kinase / lactate dehydrogenase); settings: 1 mM ATP, 50 nM UvrA, 10 mM MgCl2, pH 7.5, room temperature
T1 sequence (P0A698 1-940): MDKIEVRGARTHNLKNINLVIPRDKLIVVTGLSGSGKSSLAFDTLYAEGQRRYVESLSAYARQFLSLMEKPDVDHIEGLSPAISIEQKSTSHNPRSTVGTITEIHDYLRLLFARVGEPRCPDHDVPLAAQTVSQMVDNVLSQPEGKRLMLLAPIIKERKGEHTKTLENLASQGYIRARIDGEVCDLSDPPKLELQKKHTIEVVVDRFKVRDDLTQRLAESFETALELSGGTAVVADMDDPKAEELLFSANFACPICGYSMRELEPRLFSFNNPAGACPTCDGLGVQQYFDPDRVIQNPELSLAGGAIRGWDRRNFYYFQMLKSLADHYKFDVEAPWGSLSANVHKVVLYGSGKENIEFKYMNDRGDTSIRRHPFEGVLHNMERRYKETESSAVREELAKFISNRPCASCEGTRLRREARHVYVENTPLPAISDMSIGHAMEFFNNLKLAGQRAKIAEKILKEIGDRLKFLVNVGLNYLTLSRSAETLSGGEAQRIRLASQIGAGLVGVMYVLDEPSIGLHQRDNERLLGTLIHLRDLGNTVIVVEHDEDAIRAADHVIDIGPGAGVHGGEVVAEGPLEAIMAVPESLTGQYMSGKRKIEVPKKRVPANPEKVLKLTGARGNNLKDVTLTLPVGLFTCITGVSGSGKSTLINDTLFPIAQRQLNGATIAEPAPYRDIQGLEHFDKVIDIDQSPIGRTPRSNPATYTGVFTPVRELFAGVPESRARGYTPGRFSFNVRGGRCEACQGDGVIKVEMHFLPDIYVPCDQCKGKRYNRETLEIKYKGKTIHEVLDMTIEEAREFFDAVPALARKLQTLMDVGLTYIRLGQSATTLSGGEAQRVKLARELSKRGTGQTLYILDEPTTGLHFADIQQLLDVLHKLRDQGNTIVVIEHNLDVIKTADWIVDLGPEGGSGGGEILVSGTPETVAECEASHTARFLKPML

[2] = biological target: T2, UvrABC (UvrA, UvrB and UvrC) (Escherichia coli, UniProt P0A698+P0A8F8+P0A8G0); experiment: fluorescence-based DNA incision assay (Cy5 / black hole quencher); settings: 37 °C, 200 nM UvrA, 400 nM UvrB, 200 nM UvrC, 1 mM ATP, 100 nM fluorescein-adducted DNA, pH 7.5, compound concentration not given for this assay
T2 construct: purified proteins; UvrB and UvrC with C-terminal linker, AviTag, TEV site and 6xHis

UvrA [3] = biological target: T1, UvrA; experiment: NADH-coupled ATPase assay (pyruvate kinase / lactate dehydrogenase); settings: without DNA; 50 nM UvrA, 20 μM compound, 1 mM ATP, 10 mM MgCl2, pH 7.5, room temperature; allosteric site only from docking
UvrA [4] = biological target: T1, UvrA; experiment: as above; settings: with and without DNA; 50 nM UvrA, 20 μM compound, 1 mM ATP, 10 mM MgCl2, pH 7.5, room temperature; DNA intercalator

T2 sequence (P0A8G0 whole entry, one chain of several): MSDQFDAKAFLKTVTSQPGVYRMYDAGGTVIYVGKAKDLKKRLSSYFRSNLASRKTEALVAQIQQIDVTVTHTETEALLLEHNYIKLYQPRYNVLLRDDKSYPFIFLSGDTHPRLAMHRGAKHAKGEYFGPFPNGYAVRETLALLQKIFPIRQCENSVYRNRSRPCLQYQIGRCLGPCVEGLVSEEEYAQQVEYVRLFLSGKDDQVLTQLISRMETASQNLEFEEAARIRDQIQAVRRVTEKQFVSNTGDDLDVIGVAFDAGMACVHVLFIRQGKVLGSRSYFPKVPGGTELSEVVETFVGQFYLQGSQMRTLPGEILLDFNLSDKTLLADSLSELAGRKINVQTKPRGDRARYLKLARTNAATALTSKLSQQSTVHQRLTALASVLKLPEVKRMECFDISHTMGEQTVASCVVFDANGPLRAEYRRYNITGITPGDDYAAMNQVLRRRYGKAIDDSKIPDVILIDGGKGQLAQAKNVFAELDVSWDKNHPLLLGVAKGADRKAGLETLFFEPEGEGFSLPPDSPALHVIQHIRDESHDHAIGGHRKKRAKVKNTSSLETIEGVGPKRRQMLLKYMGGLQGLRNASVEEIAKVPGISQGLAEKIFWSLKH
T2 sequence (P0A8F8 2-673, one chain of several): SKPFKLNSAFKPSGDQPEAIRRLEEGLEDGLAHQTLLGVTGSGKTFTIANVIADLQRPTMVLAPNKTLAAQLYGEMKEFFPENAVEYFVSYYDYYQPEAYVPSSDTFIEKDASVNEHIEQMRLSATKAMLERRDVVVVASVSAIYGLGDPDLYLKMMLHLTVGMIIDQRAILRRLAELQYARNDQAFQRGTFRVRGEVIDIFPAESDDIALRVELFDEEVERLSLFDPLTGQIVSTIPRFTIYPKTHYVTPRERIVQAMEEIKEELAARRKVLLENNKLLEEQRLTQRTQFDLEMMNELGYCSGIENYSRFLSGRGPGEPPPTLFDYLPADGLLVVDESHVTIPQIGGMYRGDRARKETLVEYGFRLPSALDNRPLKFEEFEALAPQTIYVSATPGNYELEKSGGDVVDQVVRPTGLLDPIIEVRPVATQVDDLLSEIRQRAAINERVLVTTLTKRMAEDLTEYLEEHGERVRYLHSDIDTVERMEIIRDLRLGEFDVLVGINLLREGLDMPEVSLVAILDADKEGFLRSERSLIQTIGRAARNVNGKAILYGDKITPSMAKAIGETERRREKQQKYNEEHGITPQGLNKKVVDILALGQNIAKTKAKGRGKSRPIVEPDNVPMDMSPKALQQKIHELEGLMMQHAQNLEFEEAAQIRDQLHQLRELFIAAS

| Structure (SMILES) | % reduction of ATPase at 20 μM (UvrA [3]) [%] | % ATPase activity at 20 μM (UvrA [4]) | other results |
| --- | --- | --- | --- |
| Nc1ncnc2c1ncn2[C@@H]1O[C@H](COP(=O)(O)OP(=O)(O)OP(=O)(O)O)[C@@H](O)[C@H]1O [ATP] |  |  | NADH-coupled ATPase assay (pyruvate kinase / lactate dehydrogenase) (UvrA [1]): We directly measured the rate of ATP turnover for purified UvrA |
| Nc1c2ccccc2nc2ccccc12 [9-aminoacridine] |  |  | max inhibition ([2]; 2.5 h, possibly acts through DNA, target subunit unk): ~ 49% |
| N[C@@H](Cc1cc(I)c(Oc2cc(I)c(O)c(I)c2)c(I)c1)C(=O)O [L-thyroxine] | > 70 |  |  |
| O=C1c2c(O)ccc(O)c2C(=O)c2c(NCCNCCO)ccc(NCCNCCO)c21 [Mitoxantrone] |  | both Mitoxantrone and Pirarubicin directly inhibit UvrA’s ATPase activity | max inhibition ([2]; 16 h, DNA intercalator): ~ 82% |
| C/C=C(/C(=C/C)c1ccc(O)cc1)c1ccc(O)cc1 [Dienestrol] | > 70 |  | max inhibition ([2]; 16 h): ~ 25% |
| COc1cccc2c1C(=O)c1c(O)c3c(c(O)c1C2=O)C[C@@](O)(C(=O)CO)C[C@@H]3O[C@H]1C[C@H](N)[C@H](O[C@@H]2CCCCO2)[C@H](C)O1 [Pirarubicin] |  | Pirarubicin, Mitoxantrone, Dienestrol and L-thyroxine all inhibited the ATPase |  |
